According to patent US20100087439A1, “NOVEL […]/OR THERAPEUTIC AGENT FOR NEUROPATHIC PAIN” (ASTELLAS PHARMA INC., priority 2007, published 2010):
Where two headings read alike, the source gives them in different places.

Assays:
[1] = tested on: L5/L6 spinal nerve ligation models; assay type: in vivo, male SD rats
Method: The evaluation of an analgesic effect on neuropathic pain was performed according to the method of Kim et al. using L5/L6 spinal nerve ligation models. That is, the left L5 and L6 sciatic nerves of male SD rats were tightly ligated with a silk thread under pentobarbital anesthesia, and thereafter, the evaluation was performed. As the assessment of pain behavior, a von Frey Test on the plantar surface of the animals was employed (Pain, vol. 50, pp. 355-363, 1992). That is, the plantar surface of the operated limb of the nerve ligation rat was stimulated by using von Frey Filament until a withdrawal response was observed, and the lowest amount of force (g) required to elicit withdrawal response was defined as a pain threshold. […] Each of a vehicle and diluted solutions obtained by diluting (±)-2-[(inden-7-yloxy)methyl]morpholine hydrochloride (indeloxazine hydrochloride), (+)-2-[(inden-7-yloxy)methyl]morpholine hydrochloride ((+)-indeloxazine hydrochloride), (−)-2-[(inden-7-yloxy)methyl]morpholine hydrochloride ((−)-indeloxazine hydrochloride), or duloxetine with a vehicle so as to give a dose of 30 mg/kg (calculated as a salt free form) was orally administered to rats in each group. The oral absorption of venlafaxine is poor, therefore, venlafaxine was intraperitoneally administered. As the vehicle, distilled water was used. A pain threshold was measured at 3 hours after administration in the case of duloxetine, and at 1 hour after administration in the case of the other compounds. An analgesic effect of each compound was examined based on recovery of the pain threshold in the each compound administration group compared with that in the vehicle administration group, as S. K. Joshi et al. described (Neuroscience, vol. 143, pp. 587-596, 2006).
The numerical values in the table indicate a mean value±standard error of the mean (SEM) of recovery ratios of thresholds of compounds when the pain threshold of the normal side paw is regarded as 100% and the pain threshold of the operated side paw is regarded as 0%.

[2] = tested on: CYP; experiment: CYP inhibitory activity; assay type: in vitro ADME; conditions: no method or isoform given
[3] = 30 mg/kg (calculated as a salt free form), p.o., measured 1 hour after administration, mean ± SEM, hydrochloride
[4] = oral dose of 30 mg/kg (salt free form), 1 hour after administration, Student's t-test

## C1=Cc2cccc(OCC3CNCCO3)c2C1.Cl (single isomer, unassigned; (-)) [(−)-Indeloxazine hydrochloride, (−)-2-[(inden-7-yloxy)methyl]morpholine hydrochloride]
[1]; [3]
  % Effect (recovery ratio of pain threshold; normal side paw = 100%, operated side paw = 0%): 115.7 ± 22.0 %
[1]; [4]
  recovery in the pain threshold compared with the vehicle group (in words): significant recovery in the pain threshold

## CNCC[C@H](Oc1cccc2ccccc12)c1cccs1 [Duloxetine, (S)—N-methyl-γ-(1-naphthalenyloxy)-2-thiophenepropanamine, reference compound]
[1]; rat, in vivo
  % Effect (recovery ratio of pain threshold; normal side paw = 100%, operated side paw = 0%): 49.3 ± 25.3%
  recovery in the pain threshold compared with the vehicle group (in words): a significant recovery in the threshold was not observed

## C1=Cc2cccc(OCC3CNCCO3)c2C1 (single isomer, unassigned; (+)) [(+)-2-[(inden-7-yloxy)methyl]morpholine]
[2]
  CYP inhibitory activity (in words): extremely weak CYP inhibitory activity

## COc1ccc(C(CN(C)C)C2(O)CCCCC2)cc1 (racemic) [Venlafaxine, (±)-1-[2-(dimethylamino)-1-(4-methoxyphenyl)ethyl]cyclohexanol, reference compound]
[1]; 30 mg/kg (salt free form), intraperitoneal, 1 hour after administration, Student's t-test
  recovery in the pain threshold compared with the vehicle group (in words): a significant recovery in the threshold was not observed

## C1=Cc2cccc(OCC3CNCCO3)c2C1.Cl (racemic) [(±)-Indeloxazine hydrochloride, (±)-2-[(inden-7-yloxy)methyl]morpholine hydrochloride]
[1]; 30 mg/kg (calculated as a salt free form), p.o., measured 1 hour after administration, mean ± SEM
  % Effect (recovery ratio of pain threshold; normal side paw = 100%, operated side paw = 0%): 94.3 ± 24.6 %
[1]; [4]
  recovery in the pain threshold compared with the vehicle group (in words): significant recovery in the pain threshold

## C1=Cc2cccc(OCC3CNCCO3)c2C1.Cl (single isomer, unassigned; (+)) [(+)-Indeloxazine hydrochloride, (+)-2-[(inden-7-yloxy)methyl]morpholine hydrochloride]
[1]; [3]
  % Effect (recovery ratio of pain threshold; normal side paw = 100%, operated side paw = 0%): 94.5 ± 17.0 %
[1]; [4]
  recovery in the pain threshold compared with the vehicle group (in words): significant recovery in the pain threshold
